Measured values reported in PubChem BioAssay (NCI).
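GI50 is the concentration that inhibits growth by half. TGI marks complete inhibition of growth.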

Columns and labels:
Assay in all cases: NCI-60 cell line screen, 384-well format
MALME-3M melanoma = test system: MALME-3M melanoma
SR leukemia = test system: SR leukemia
A498 renal = test system: A498 renal
MOLT-4 leukemia = test system: MOLT-4 leukemia
SK-OV-3 ovarian = test system: SK-OV-3 ovarian
K-562 leukemia = test system: K-562 leukemia
IGROV1 ovarian = test system: IGROV1 ovarian
OVCAR-8 ovarian = test system: OVCAR-8 ovarian
LOX IMVI melanoma = test system: LOX IMVI melanoma
HS 578T breast = test system: HS 578T breast
ACHN renal = test system: ACHN renal
U251 glioblastoma = test system: U251 glioblastoma
RXF 393 renal = test system: RXF 393 renal
OVCAR-5 ovarian = test system: OVCAR-5 ovarian
NCI-H322M lung = test system: NCI-H322M lung
MDA-MB-435 melanoma = test system: MDA-MB-435 melanoma
HT29 colon = test system: HT29 colon
HCC-2998 colon = test system: HCC-2998 colon
TK-10 renal = test system: TK-10 renal
SW-620 colon = test system: SW-620 colon
COLO 205 colon = test system: COLO 205 colon
M14 melanoma = test system: M14 melanoma
SN12C renal = test system: SN12C renal
SK-MEL-28 melanoma = test system: SK-MEL-28 melanoma
DU-145 prostate = test system: DU-145 prostate
BT-549 breast = test system: BT-549 breast
UACC-62 melanoma = test system: UACC-62 melanoma
SF-295 CNS = test system: SF-295 CNS
UO-31 renal = test system: UO-31 renal
SF-539 CNS = test system: SF-539 CNS

With `CC1CCC(n2c3cnccc3c3cnc(Nc4ccc5c(n4)CCN(C(=O)CO)C5)nc32)CC1` (stereo not drawn) the GI50 (MALME-3M melanoma) was 19.8 µM, the TGI (MALME-3M melanoma) was > 100 µM and the GI50 (SR leukemia) was 0.316 µM. It also gave a TGI (SR leukemia) of 0.829 µM, a GI50 (A498 renal) of 1.78 µM and a TGI (A498 renal) of 9.42 µM. For the same compound, the GI50 (MOLT-4 leukemia) was 0.278 µM, the TGI (MOLT-4 leukemia) was 2.71 µM and the GI50 (SK-OV-3 ovarian) was 21.6 µM. The TGI (SK-OV-3 ovarian) was > 100 µM, the GI50 (K-562 leukemia) was 3.64 µM and the TGI (K-562 leukemia) was > 100 µM. The GI50 (IGROV1 ovarian) was 8.39 µM, the TGI (IGROV1 ovarian) was > 100 µM and the GI50 (OVCAR-8 ovarian) was 6.42 µM. The TGI (OVCAR-8 ovarian) was > 100 µM, the GI50 (LOX IMVI melanoma) was 2.4 µM and the TGI (LOX IMVI melanoma) was > 100 µM. For the same compound, the GI50 (HS 578T breast) was 18.3 µM, the TGI (HS 578T breast) was > 100 µM and the GI50 (ACHN renal) was 2.59 µM. For the same compound, the TGI (ACHN renal) was > 21.9 µM, the GI50 (U251 glioblastoma) was 7.16 µM and the TGI (U251 glioblastoma) was > 100 µM. For the same compound, the GI50 (RXF 393 renal) was > 20.7 µM, the TGI (RXF 393 renal) was > 100 µM and the GI50 (OVCAR-5 ovarian) was 2.23 µM. For the same compound, the TGI (OVCAR-5 ovarian) was > 100 µM, the GI50 (NCI-H322M lung) was 8.61 µM and the TGI (NCI-H322M lung) was > 26.4 µM. The GI50 (MDA-MB-435 melanoma) was 8.55 µM, the TGI (MDA-MB-435 melanoma) was > 100 µM and the GI50 (HT29 colon) was 6.05 µM. The TGI (HT29 colon) was > 100 µM, the GI50 (HCC-2998 colon) was 1.69 µM and the TGI (HCC-2998 colon) was > 100 µM. For the same compound, the GI50 (TK-10 renal) was 5.16 µM, the TGI (TK-10 renal) was > 100 µM and the GI50 (SW-620 colon) was 1.05 µM. For the same compound, the TGI (SW-620 colon) was 14.2 µM, the GI50 (COLO 205 colon) was 0.846 µM and the GI50 (M14 melanoma) was 8.48 µM. For the same compound, the TGI (M14 melanoma) was > 100 µM, the GI50 (SN12C renal) was 16.3 µM and the TGI (SN12C renal) was > 100 µM. For the same compound, the GI50 (SK-MEL-28 melanoma) was 11.9 µM, the TGI (SK-MEL-28 melanoma) was > 100 µM and the GI50 (DU-145 prostate) was 7.86 µM. For the same compound, the TGI (DU-145 prostate) was 42.2 µM, the GI50 (BT-549 breast) was 6.54 µM and the TGI (BT-549 breast) was > 72.4 µM. For the same compound, the GI50 (UACC-62 melanoma) was 6.15 µM, the TGI (UACC-62 melanoma) was > 100 µM and the TGI (SF-295 CNS) was > 73.9 µM. For the same compound, the GI50 (UO-31 renal) was 15.1 µM, the TGI (UO-31 renal) was > 100 µM and the GI50 (SF-539 CNS) was 5.87 µM. The TGI (SF-539 CNS) was > 100 µM.
